This note sets out measurements from paper PMC6100512, “In-Vitro Activity of Silybin and Related Flavonolignans against Leishmania infantum and L. donovani” (Molecules : A Journal of Synthetic Chemistry and Natural …, 2018).

A value given as a limit tells only on which side of the number the result lay.

For test [1], the system named is BALB/c mouse peritoneal macrophages, Mφ. Briefly: Toxicity of flavonolignans for macrophages (CellTiter-Glo). The test is classed as cell-based. The settings on record: Peritoneal macrophage, 24 h, 28.125 to 900 µM, approximate. The procedure:
Toxicity of flavonolignans for mammalian cells was determined using mouse peritoneal Mφ. Cells obtained were counted and seeded onto 96-well cultures plates (Costar, Corning) at a final concentration of 5 × 10^4 Mφ/well (100 µL/well). Plates were incubated overnight at 37 °C and humidified 5% CO2/95% air to facilitate adherence. Cells were cultured as above for 24 h with different concentrations of the flavonolignans (28.125 µM, 56.25 µM, 112.5 µM, 225 µM, 450 µM and 900 µM). After incubation, cell viability was determined with CellTiter-Glo® as previously described. Untreated and 300 µM AmB-treated control wells were included. Experiments were done in triplicate and approximate IC50 determined.
In general terms: Cellular ATP, detected with luciferase, serves as a proxy for viable cell number.

Test [2] relates to intracellular amastigotes of Li BCN150. The test is described as follows: Activity against intracellular amastigotes ex vivo in mouse peritoneal Mφ. It is filed as cell-based, Leishmania infantum. Conditions: 10 µM, 24 h. The procedure:
Antiproliferative activity of flavonolignans against intracellular amastigotes was determined ex vivo using mouse peritoneal Mφ. Infections were carried out following the method and modifications described by us. Briefly, Mφ were seeded onto 8-well cell culture slides (SLP, Lifesciences Co., Pocheon, Korea) in a final volume of 400 µL (2.5 × 10^4 Mφ/well). Plates were incubated overnight at 37 °C under humidified 5% CO2/95% air atmosphere to facilitate adherence. Stationary-phase promastigotes of Ld and Li were centrifuged (370× g, 10 min) without break in a Ficoll (Sigma, Saint Louis, MO, USA) gradient (0%, 10% in Medium 199 and 30% in sterile phosphate-buffered saline). Metacyclic promastigotes, located in the 10–30% Ficoll interphase, were recovered, washed and opsonized in 15% normal mouse serum in 1:1 solution of RPMI and HBSS medium (Gibco, Life Technologies, Paisley, UK), 0.15 mM CaCl2 and 1 mM MgCl2 at 37 °C, 5% CO2 atmosphere for 30 min. Purified metacyclic promastigotes were added to the Mφ cultures using a ratio 4:1 (promastigotes:Mφ) for Li and 10:1 for Ld. Plates were incubated at 33 °C overnight as above. Noninternalized promastigotes were eliminated by repeated washing with fresh medium. Treatments (10 µM) were added to the cultures and kept for 24 h. Slides were methanol-fixed and stained with May–Grünwald Giemsa (Merck) to determine the % of infection and the number of amastigotes/100 Mφ under microscope. Cultures untreated, treated with 0.05% DMSO and treated with 0.1 µM AmB were included as controls. Experiments were done in triplicate and the activity was expressed as % of inhibition compared to untreated cultures.

Another test has as its system Ld promastigotes. Briefly: Multiplication of Ld promastigotes in vitro (CellTiter-Glo, 24 h). The test is classed as cell-based, L. donovani. The settings on record: Leishmania donovani, 120 µM, compared to untreated cultures, mean ± SD, read-out: Reduction (%) of multiplication, L. donovani promastigotes. The method, then:
(§1) Growth was estimated by the addition of CellTiter-Glo® (Promega, Madison, WI, USA) (1:1) in 96-well microtiter white plates (Costar, Corning). After 10 min incubation (light protected, room temperature), luminescence was determined with FLUOstar Omega (BMG Labtech) reader. Sensitivity of Ld was similarly performed with promastigotes exposed to 120 μM. Control cultures (medium, untreated promastigotes, promastigotes treated with 0.2 μM AmB) were included. Experiment was carried out in triplicate and results expressed as % of inhibition of untreated control. Approximate IC50 values of the flavonolignans showing the highest inhibitory activity against Li mid-log-phase promastigotes were determined using dose-response curves. […] The compound with the highest activity, DhiS-A, was assayed against Ld promastigotes using the latter dilution series and the same culture conditions as above. For comparative purposes, mid-log promastigotes of Li and Ld were exposed to established anti-Leishmania agents: AmB (0.0078 μ[…] and 1.0 μM); […]

A further test relates to Li UCM9 promastigotes. The test is described as follows: Multiplication of Li promastigotes in vitro (CellTiter-Glo, 24 h). It is filed as cell-based, Leishmania infantum. Conditions: Leishmania infantum; for inhibition of growth at 120 µM: 24 h, compared to untreated cultures, mean ± SD, read-out: Reduction (%) of multiplication, L infantum promastigotes. The method, then:
as §1

By IC50 is commonly meant the point on the concentration scale where inhibition reaches its midpoint. A low value points to higher potency. Take `COc1cc([C@H]2Oc3cc(-c4oc5cc(O)cc(O)c5c(=O)c4O)ccc3O[C@@H]2CO)ccc1O` [Dehydrosilybin A, dehydrosilybin A]: the IC50 in test [1] is roughly 60 µM. For the same compound, the “Reduction of Mφ infection, Li” value in test [2] was 40.13 ± 12.6%. The “Reduction of intracellular amastigotes, Li” value in test [2] is “over 50%”. For the same compound, the inhibition of growth at 120 µM with Ld promastigotes is -38.7 ± 5.41%; in the test with Li UCM9 promastigotes it was 10.2 ± 6.97%.
Turning to `COc1cc([C@@H]2Oc3c(O)cc(-c4oc5cc(O)cc(O)c5c(=O)c4O)cc3[C@H]2CO)ccc1O` [Dehydrosilychristin A, dehydrosilychristin A], the IC50 in test [1] was roughly 40 µM. Besides, the inhibition of growth at 120 µM was 46.7 ± 1.24% in the test on Ld promastigotes and 30.6 ± 3.33% in the test with Li UCM9 promastigotes. The Emax in the test with Li UCM9 promastigotes (exploratory screening, 0.94 µM up to 120 µM, read-out: Maximal effect (inhibition of growth of control cultures) on Li promastigotes) is less than 50%.
